# Columns and labels:
# Type in all cases: in vivo
# [1] = system: barnyardgrass (Echinochloa crus-galli); assay: Test B flooded paddy test, visual plant response rating; conditions: 250 g ai/ha, Flood, applied to paddy water, 2-leaf stage, evaluated after 13 to 15 days
# Summary of the method: (§1)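 Test pots are flooded 3 cm above the soil at treatment, and the test substance is introduced into this standing water. After keeping the flood level and growing plants, treated at the 2-leaf stage, for 13 to 15 days under glass, injury is assessed visually versus controls.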
# rice (Oryza sativa) = assay: as above; conditions: 250 g ai/ha, Flood, applied to paddy water, 2-leaf stage, evaluated after 13 to 15 days
# Summary of the method: as §1
# [2] = system: ducksalad (Heteranhera limosa); assay: as above; conditions: 250 g ai/ha, Flood, applied to paddy water, 2-leaf stage, evaluated after 13 to 15 days
# Summary of the method: as §1
# [3] = system: sedge, umbrella (small-flower umbrella sedge, Cyperus difformis); assay: as above; conditions: 250 g ai/ha, Flood, applied to paddy water, 2-leaf stage, evaluated after 13 to 15 days
# Summary of the method: as §1
# [4] = system: barnyardgrass (Echinochloa crus-galli); assay: Test A postemergence, visual plant response rating; conditions: for Barnyardgrass plant response rating (0 to 100 scale): 500 g ai/ha, postemergence, 0 is no effect, 100 is complete control; for Barnyardgrass plant response rating: Postemergence, 125 g ai/ha, 0 to 100 scale (0 no effect, 100 complete control)
# Summary of the method: (§2)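 Preemergence: seeds in loam/sand blend given directed soil spray of compound in non-phytotoxic solvent with surfactant. Postemergence: plants 2–10 cm, one- to two-leaf stage, sprayed with same formulation. Visual injury rated vs untreated controls after ~10 days in greenhouse, 0 (no effect) to 100 (complete control).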
# [5] = system: blackgrass (Alopecurus myosuroides); assay: Test A postemergence, visual plant response rating; conditions: for Blackgrass plant response rating (0 to 100 scale): 500 g ai/ha, postemergence, 0 is no effect, 100 is complete control; for Blackgrass plant response rating: Postemergence, 125 g ai/ha, 0 to 100 scale (0 no effect, 100 complete control)
# Summary of the method: as §2
# [6] = system: foxtail, giant (giant foxtail, Setaria faberii); assay: Test A postemergence, visual plant response rating; conditions: for Foxtail, Giant plant response rating (0 to 100 scale): 500 g ai/ha, postemergence, 0 is no effect, 100 is complete control; for Foxtail, Giant plant response rating: Postemergence, 125 g ai/ha, 0 to 100 scale (0 no effect, 100 complete control)
# Summary of the method: as §2
# kochia (Kochia scoparia) [7] = assay: Test A postemergence, visual plant response rating; conditions: for Kochia plant response rating (0 to 100 scale): 500 g ai/ha, postemergence, 0 is no effect, 100 is complete control; for Kochia plant response rating: Postemergence, 125 g ai/ha, 0 to 100 scale (0 no effect, 100 complete control)
# Summary of the method: as §2
# [8] = system: ragweed (common ragweed, Ambrosia elatior); assay: Test A postemergence, visual plant response rating; conditions: for Ragweed plant response rating (0 to 100 scale): 500 g ai/ha, postemergence, 0 is no effect, 100 is complete control; for Ragweed plant response rating: Postemergence, 125 g ai/ha, 0 to 100 scale (0 no effect, 100 complete control)
# Summary of the method: as §2
# [9] = system: wheat (Triticum aestivum); assay: Test A postemergence, visual plant response rating; conditions: for Wheat plant response rating: 125 g ai/ha, 0 to 100 scale (0 no effect, 100 complete control)
# Summary of the method: as §2
# corn (Zea mays) = assay: Test A postemergence, visual plant response rating; conditions: for Corn plant response rating (0 to 100 scale): 500 g ai/ha, postemergence, 0 is no effect, 100 is complete control; for Corn plant response rating: Postemergence, 125 g ai/ha, 0 to 100 scale (0 no effect, 100 complete control)
# Summary of the method: as §2
# [10] = system: galium (catchweed bedstraw, Galium aparine); assay: Test A postemergence, visual plant response rating; conditions: for Galium plant response rating (0 to 100 scale): 500 g ai/ha, postemergence, 0 is no effect, 100 is complete control; for Galium plant response rating: Postemergence, 125 g ai/ha, 0 to 100 scale (0 no effect, 100 complete control)
# Summary of the method: as §2
# [11] = system: Italian ryegrass (Lolium multiflorum); assay: Test A postemergence, visual plant response rating; conditions: for Ryegrass, Italian plant response rating: 125 g ai/ha, 0 to 100 scale (0 no effect, 100 complete control)
# Summary of the method: as §2
# [12] = system: pigweed (Amaranthus retroflexus); assay: Test A postemergence, visual plant response rating; conditions: for Pigweed plant response rating (0 to 100 scale): 500 g ai/ha, postemergence, 0 is no effect, 100 is complete control; for Pigweed plant response rating: Postemergence, 125 g ai/ha, 0 to 100 scale (0 no effect, 100 complete control)
# Summary of the method: as §2
# [13] = system: barnyardgrass (Echinochloa crus-galli); assay: Test A preemergence, visual plant response rating; conditions: for Barnyardgrass plant response rating: 125 g ai/ha, preemergence, 0 to 100 scale, 0 no effect, 100 complete control; for Barnyardgrass plant response rating (0 to 100 scale): 500 g ai/ha Preemergence, approx. 10 days
# Summary of the method: as §2
# [14] = system: foxtail, giant (giant foxtail, Setaria faberii); assay: Test A preemergence, visual plant response rating; conditions: for Foxtail, Giant plant response rating: 125 g ai/ha, preemergence, 0 to 100 scale, 0 no effect, 100 complete control; for Foxtail, Giant plant response rating (0 to 100 scale): 500 g ai/ha Preemergence, approx. 10 days
# Summary of the method: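 Compared with untreated controls, treated plants received a visual injury score on a 0–100 scale around 10 days after application. The compound, in a non-phytotoxic solvent with surfactant, was given as a preemergence soil spray or postemergence at the one- to two-leaf stage.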
# kochia (Kochia scoparia) [15] = assay: Test A preemergence, visual plant response rating; conditions: for Kochia plant response rating: 125 g ai/ha, preemergence, 0 to 100 scale, 0 no effect, 100 complete control; for Kochia plant response rating (0 to 100 scale): 500 g ai/ha Preemergence, approx. 10 days
# Summary of the method: as §2
# [16] = system: ragweed (common ragweed, Ambrosia elatior); assay: Test A preemergence, visual plant response rating; conditions: for Ragweed plant response rating: 125 g ai/ha, preemergence, 0 to 100 scale, 0 no effect, 100 complete control; for Ragweed plant response rating (0 to 100 scale): 500 g ai/ha Preemergence, approx. 10 days
# Summary of the method: as §2
# [17] = system: Italian ryegrass (Lolium multiflorum); assay: Test A preemergence, visual plant response rating; conditions: for Ryegrass, Italian plant response rating: 125 g ai/ha, preemergence, 0 to 100 scale, 0 no effect, 100 complete control; for Ryegrass, Italian plant response rating (0 to 100 scale): 500 g ai/ha Preemergence, approx. 10 days
# Summary of the method: as §2
# [18] = system: pigweed (Amaranthus retroflexus); assay: Test A preemergence, visual plant response rating; conditions: for Pigweed plant response rating: 125 g ai/ha, preemergence, 0 to 100 scale, 0 no effect, 100 complete control; for Pigweed plant response rating (0 to 100 scale): 500 g ai/ha Preemergence, approx. 10 days
# Summary of the method: as §2
# [19] = 500 g ai/ha, postemergence, 0 is no effect, 100 is complete control
Compound,"Plant response rating, Barnyardgrass (0 to 100 scale, 0 is no effect, 100 is complete control) [1]","Plant response rating, Rice (0 to 100 scale, 0 is no effect, 100 is complete control) (rice (Oryza sativa))","Plant response rating, Ducksalad (0 to 100 scale, 0 is no effect, 100 is complete control) [2]","Plant response rating, Sedge, Umbrella (0 to 100 scale, 0 is no effect, 100 is complete control) [3]",Barnyardgrass plant response rating (0 to 100 scale) [4],Barnyardgrass plant response rating [4],Blackgrass plant response rating (0 to 100 scale) [5],Blackgrass plant response rating [5],"Foxtail, Giant plant response rating (0 to 100 scale) [6]","Foxtail, Giant plant response rating [6]",Kochia plant response rating (0 to 100 scale) (kochia (Kochia scoparia) [7]),Kochia plant response rating (kochia (Kochia scoparia) [7]),Ragweed plant response rating (0 to 100 scale) [8],Ragweed plant response rating [8],"Wheat plant response rating (0 to 100 scale) [9, 19]",Corn plant response rating (0 to 100 scale) (corn (Zea mays)),Corn plant response rating (corn (Zea mays)),Galium plant response rating (0 to 100 scale) [10],Galium plant response rating [10],"Ryegrass, Italian plant response rating (0 to 100 scale) [11, 19]",also measured
CON=C(c1cccc(C#N)c1)c1c(O)c(C)nn(C)c1=O [Compound 57],15,15,0,0,0,0,0,0,0,0,50,0,10,0,10,0,20,50,10,20,"Wheat plant response rating ([9]; Postemergence): 0; Ryegrass, Italian plant response rating ([11]; Postemergence): 10; Pigweed plant response rating (0 to 100 scale) [12]: 30; Pigweed plant response rating [12]: 30; Barnyardgrass plant response rating [13]: 0; Barnyardgrass plant response rating (0 to 100 scale) [13]: 0; Foxtail, Giant plant response rating [14]: 0; Foxtail, Giant plant response rating (0 to 100 scale) [14]: 30; Kochia plant response rating (kochia (Kochia scoparia) [15]): 0; Kochia plant response rating (0 to 100 scale) (kochia (Kochia scoparia) [15]): 10; Ragweed plant response rating [16]: 0; Ragweed plant response rating (0 to 100 scale) [16]: 0; Ryegrass, Italian plant response rating [17]: 0; Ryegrass, Italian plant response rating (0 to 100 scale) [17]: 0; Pigweed plant response rating [18]: 0; Pigweed plant response rating (0 to 100 scale) [18]: 0"
CON=C(c1cc(C(F)(F)F)ccc1Cl)c1c(O)c(C)nn(C)c1=O [Compound 73],0,0,0,0,60,20,90,30,60,30,80,60,80,50,40,20,0,70,70,90,"Wheat plant response rating ([9]; Postemergence): 20; Ryegrass, Italian plant response rating ([11]; Postemergence): 40; Pigweed plant response rating (0 to 100 scale) [12]: 90; Pigweed plant response rating [12]: 80; Barnyardgrass plant response rating [13]: 20; Barnyardgrass plant response rating (0 to 100 scale) [13]: 80; Foxtail, Giant plant response rating [14]: 20; Foxtail, Giant plant response rating (0 to 100 scale) [14]: 80; Kochia plant response rating (kochia (Kochia scoparia) [15]): 0; Kochia plant response rating (0 to 100 scale) (kochia (Kochia scoparia) [15]): 20; Ragweed plant response rating [16]: 30; Ragweed plant response rating (0 to 100 scale) [16]: 90; Ryegrass, Italian plant response rating [17]: 20; Ryegrass, Italian plant response rating (0 to 100 scale) [17]: 50; Pigweed plant response rating [18]: 70; Pigweed plant response rating (0 to 100 scale) [18]: 100"
CO/N=C(/c1cscc1C)c1c(O)c(C)nn(C)c1=O [Compound 140],0,0,0,0,20,0,0,0,30,10,60,20,70,50,0,20,10,70,70,60,"Wheat plant response rating (0 to 100 scale) ([9]; Postemergence, approx. 10 days): 0; Ryegrass, Italian plant response rating (0 to 100 scale) ([11]; Postemergence, rate not given, approx. 10 days): 10; Pigweed plant response rating (0 to 100 scale) [12]: 90; Pigweed plant response rating [12]: 80; Barnyardgrass plant response rating [13]: 0; Barnyardgrass plant response rating (0 to 100 scale) [13]: 0; Foxtail, Giant plant response rating [14]: 0; Foxtail, Giant plant response rating (0 to 100 scale) [14]: 10; Kochia plant response rating (kochia (Kochia scoparia) [15]): 0; Kochia plant response rating (0 to 100 scale) (kochia (Kochia scoparia) [15]): 0; Ragweed plant response rating [16]: 10; Ragweed plant response rating (0 to 100 scale) [16]: 50; Ryegrass, Italian plant response rating [17]: 20; Ryegrass, Italian plant response rating (0 to 100 scale) [17]: 50; Pigweed plant response rating [18]: 0; Pigweed plant response rating (0 to 100 scale) [18]: 90"

# Source: US20210045385A1, “PYRIDAZINONE-SUBSTITUTED KETOXIMES AS HERBICIDES” (FMC Corporation, priority 2018, published 2021)
